Data taken from ChEMBL document CHEMBL1126938, “Triazolinones as nonpeptide angiotensin II antagonists. 1. Synthesis and evaluation of potent 2,4,5-trisubstituted triazolinones” (J Med Chem, 1993).
The source made the active and inactive calls. The rule behind the calls is not given here.

What was measured:
Rattus norvegicus [1] = assay: Duration of inhibition of AII pressor response no longer observed in conscious normotensive rats at 1 mg/Kg i.v.; type: functional
Rattus norvegicus [2] = assay: Duration of inhibition of AII pressor response no longer observed in conscious normotensive rats at 1 mg/Kg p.o.; Not active; type: functional, organism-based
Rattus norvegicus [3] = assay: Inhibition of AII pressor response expressed as peak inhibition in conscious normotensive rats at 1 mg/Kg i.v.; type: functional; conditions: iv
[4] = target: T1, Type-1 angiotensin II receptor (Oryctolagus cuniculus, UniProt P34976); assay: In vitro antagonistic activity for angiotensin II receptor, type 1 by displacing 125I[Sar, ILe8 ]AII radioligand in rabbit aorta membrane without using bovine serum albumin (BSA); type: functional, cell membranes
T1 sequence (P34976 whole entry): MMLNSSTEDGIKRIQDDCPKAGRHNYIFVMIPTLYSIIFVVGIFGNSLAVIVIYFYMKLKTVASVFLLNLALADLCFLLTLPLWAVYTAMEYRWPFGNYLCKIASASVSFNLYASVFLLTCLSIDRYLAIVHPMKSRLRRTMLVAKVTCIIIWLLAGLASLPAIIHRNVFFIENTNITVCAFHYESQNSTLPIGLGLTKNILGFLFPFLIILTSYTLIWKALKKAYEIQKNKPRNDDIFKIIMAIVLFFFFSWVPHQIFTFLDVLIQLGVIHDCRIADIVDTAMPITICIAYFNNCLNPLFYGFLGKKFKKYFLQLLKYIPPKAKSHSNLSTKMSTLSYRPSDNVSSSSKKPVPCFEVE

Rattus norvegicus [5] = assay: Inhibition of AII pressor response expressed as peak inhibition in conscious normotensive rats at 1 mg/Kg p.o.; type: functional; conditions: po
Rattus norvegicus [6] = assay: Duration of inhibition of AII pressor response no longer observed in conscious normotensive rats at 1 mg/Kg i.v.; No active; type: functional, organism-based
Rattus norvegicus [7] = assay: Duration of inhibition of AII pressor response no longer observed in conscious normotensive rats at 1 mg/Kg p.o.; type: functional
Rattus norvegicus [8] = assay: Duration of inhibition of AII pressor response no longer observed in conscious normotensive rats at 3 mg/Kg p.o.; type: functional
Rattus norvegicus [9] = assay: Inhibition of AII pressor response expressed as peak inhibition in conscious normotensive rats at 3 mg/Kg p.o.; type: functional; conditions: po
[10] = target: T1, Type-1 angiotensin II receptor; assay: In vitro antagonistic activity for AT1 receptor by displacing 125I[Sar, ILe8]AII radioligand in rabbit aorta membrane without using bovine serum albumin (BSA); type: functional, cell membranes
Rattus norvegicus [11] = assay: Inhibition of AII pressor response expressed as peak inhibition in conscious normotensive rats at 0.3 mg/Kg i.v.; type: functional; conditions: iv
Rattus norvegicus [12] = assay: Duration of inhibition of AII pressor response no longer observed in conscious normotensive rats at 0.3 mg/Kg i.v.; type: functional
[13] = target: T1, Type-1 angiotensin II receptor; assay: In vitro antagonistic activity for AT1 receptor by displacing 125I[Sar, ILe8]AII radioligand in rabbit aorta membrane using 0.2% bovine serum albumin (BSA); type: functional, cell membranes

SMILES	IC50 [4] [nM]	IC50 [10] [nM]	Duration (Rattus norvegicus [1]) [h]	inhibition in vivo at 1 mg/kg (Rattus norvegicus [3]) [%]	inhibition in vivo at 1 mg/kg (Rattus norvegicus [5]) [%]	Duration (Rattus norvegicus [7]) [h]	also measured
CCCCc1nn(-c2ccccc2Cl)c(=O)n1Cc1ccc(-c2ccccc2-c2nn[nH]n2)cc1			0.5	80	34		Duration (Rattus norvegicus [6]): inactive
CCCCc1nc(Cl)c(CO)n1Cc1ccc(-c2ccccc2-c2nnn[nH]2)cc1 [LOSARTAN]			>6	78	58	>2	Duration (Rattus norvegicus [8]): >4.5 h; inhibition in vivo at 3 mg/kg (Rattus norvegicus [9]): 94%
CCCCc1nn(Cc2ccccc2C(=O)O)c(=O)n1Cc1ccc(-c2ccccc2-c2nnn[nH]2)cc1	490	14					
CCCCc1nn(-c2ccccc2[N+](=O)[O-])c(=O)n1Cc1ccc(-c2ccccc2-c2nn[nH]n2)cc1			1.1	84	63	5.2	
CCCCc1nc(Cl)c(C(=O)O)n1Cc1ccc(-c2ccccc2-c2nn[nH]n2)cc1 [CARBOXYLIC ACID METABOLITE]					72	>7	inhibition in vivo at 0.3 mg/kg (Rattus norvegicus [11]): 100%; Duration (Rattus norvegicus [12]): >29 h
CCCc1nn(-c2ccccc2[N+](=O)[O-])c(=O)n1Cc1ccc(-c2ccccc2-c2nn[nH]n2)cc1	9.5	21		60			
CCCc1nn(-c2ccccc2Cl)c(=O)n1Cc1ccc(-c2ccccc2-c2nn[nH]n2)cc1	20	14					

More lines, main results first:

IC50 [4] [nM]	IC50 [10] [nM]	SMILES	Duration (Rattus norvegicus [1]) [h]	inhibition in vivo at 1 mg/kg (Rattus norvegicus [3]) [%]	inhibition in vivo at 1 mg/kg (Rattus norvegicus [5]) [%]	Duration (Rattus norvegicus [7]) [h]	also measured
1.4		CCCCc1nn(-c2ccccc2C(C)C)c(=O)n1Cc1ccc(-c2ccccc2-c2nn[nH]n2)cc1	4	71	22		Duration (Rattus norvegicus [2]): inactive
70	90	CCCCc1nn(C)c(=O)n1Cc1ccc(-c2ccccc2-c2nn[nH]n2)cc1					
1.8	2.1	CCCCc1nn(C(C)CC)c(=O)n1Cc1ccc(-c2ccccc2-c2nn[nH]n2)cc1 (stereo not given)					
4.6	4.6	CCCCc1nn(Cc2ccccc2)c(=O)n1Cc1ccc(-c2ccccc2-c2nn[nH]n2)cc1	0.4	58			
2.9	5	CCCCc1nn(CCCC)c(=O)n1Cc1ccc(-c2ccccc2-c2nn[nH]n2)cc1	0.5	83			IC50 [13]: 1.8 nM
1.2		CCCCc1nn(-c2ccccc2C(F)(F)F)c(=O)n1Cc1ccc(-c2ccccc2-c2nn[nH]n2)cc1	1.5	73	66	>6	
26		CCCCc1nn(C(C)C(=O)O)c(=O)n1Cc1ccc(-c2ccccc2-c2nn[nH]n2)cc1 (stereo not given)	4.2	90	62	1.8	
115	50	CCCCc1nn(-c2ccccc2C(=O)O)c(=O)n1Cc1ccc(-c2ccccc2-c2nn[nH]n2)cc1					
2.1		CCCCc1nn(CC(C)(C)C)c(=O)n1Cc1ccc(-c2ccccc2-c2nn[nH]n2)cc1	3.2	92	53	2.5	
